{"source": "patent US4105659A", "about": "“1,2,3,4,5,6-Hexahydro-2,6-methano-3-benzazocines” (Sterling Drug Inc., priority 1964, dated 1978)", "key": {"[1]": {"assay": "Support of morphine addiction in stabilized morphine addicts"}, "[2]": {"assay": "Solubility, pH of solution and precipitation on pH adjustment or dilution", "format": "physicochemical", "experimental": "A. A mixture of 8.7 g. of racemic cis 1,2,3,4,5,6-hexahydro-6,11-dimethyl-8-hydroxy-2,6-methano-3-benzazocine (which is also known as racemic cis 2'-hydroxy-5,9-dimethyl-6,7-benzomorphan), 6.0 g of 1-bromo-3-methyl-2-butene, 5.0 g. of sodium bicarbonate, and 125 ml. of N,N-dimethylformamide was stirred and refluxed for approximately 41/2 hours. The reaction mixture was then filtered, and the solid on the filter was washed with ethanol. The filtrate and the wash liquor were combined, concentrated under reduced pressure, and then extracted with chloroform. The chloroform extract was concentrated under reduced pressure to yield a syrup which weighed 15.8 g. This syrup was dissolved in 120 ml. of diethyl ether and the resulting solution was filtered to remove approximately one-half gram of a brown amorphous solid. The filtrate was extracted with a mixture of 5 ml. of concentrated hydrochloric acid and 20 ml. of water. To the extract there was added 5 ml. of concentrated ammonium hydroxide solution and ice. A pale tan syrup separated from solution and after stirring, this syrup solidified. The resulting pale tan solid was collected and dried; it weighed 10.6 g. After two recrystallizations from a mixture of methyl alcohol and water, with charcoaling, this solid weighed 8.2 g. and melted at 145°-147° C. The product thus obtained was racemic cis 1,2,3,4,5,6-hexahydro-3-(3-methyl-2-butenyl)-6,11-dimethyl-8-hydroxy-2,6-methano-3-benzazocine (Formula II: Y = --CH2 --CH=C(CH3)2; R^3 = --H), having the molecular formula C19 H27 NO. This product was soluble in a mixture of 0.35 ml. of N/2 hydrochloric acid and 0.15 ml. of water to the extent of 10 percent, the pH of the 1 percent solution being 2.80; and when the pH of the 1 percent solution was gradually raised by addition of N/10 sodium hydroxide solution, a precipitate formed at pH 5.4. When the base was converted to the hydrochloride and was then regenerated from this salt it melted at 151°-153° C. The hydrochloride of this base melted at 245°-247° C. (dec.). and the cyclohexylsulfamate of this base melted at 163°-166° C. The base formed a grayish-yellowtannate.\nThe racemic trans product was converted to its hydrobromide, having the molecular formula C19 H27 NO·HBr, which was obtained as white needles which melted at 240°-241° C.\nThe dextro trans product was converted to its hydrochloride, having the molecular formula C19 H27 NO·HCl, which was obtained as white crystals which melted at 254°-255° C.\nThe levo trans product was converted to its hydrochloride, having the molecular formula C19 H27 NO·HCl, which was obtained as white crystals which melted at 254°-255° C. (dec.); this hydrochloride was soluble in water to the extent of 5 percent, the pH of a 1 percent aqueous solution being 5.7, a precipitate being formed when the 1 percent aqueous solution was adjusted to 7.0 by addition of N/10 sodium hydroxide solution.\nA. A mixture of 9.25 g. of racemic cis 1,2,3,4,5,6-hexahydro-6-ethyl-11-methyl-8-hydroxy-2,6-methano-3-benzazocine, 6.0 g. of 1-bromo-3-methyl-2-butene, 125 ml. of N,N-dimethylformamide, and 5.0 g. of sodium bicarbonate was stirred and refluxed for approximately 41/2 hours. The reaction mixture was then filtered, and the solid collected on the filter was washed with ethanol. The filtrate and the wash liquor were combined and concentrated under reduced pressure. To the resulting residue there was added 50 ml. of diethyl ether, and the mixture was filtered. Approximately 0.6 g. of solid was collected on the filter, and 8.2 g. of brown solid separated from the filtrate and was collected by filtration. These two crops of solid (8.8 g.) were combined, 25 ml. of methanol was added, and the mixture was boiled. Only a small portion of the solid dissolved. This mixture was mixed with 25 ml. of water and chilled. The mixture was filtered to collect 8.3 g. of pale tan solid which melted at 156°-158° C. […]"}, "[3]": {"system": "analgesic effect of meperidine hydrochloride", "assay": "Antagonism of meperidine analgesia, modified D'Amour-Smith test", "settings": "for maximum degree of antagonism: versus 60 mg/kg. meperidine"}, "[4]": {"assay": "Clinical analgesia in human subjects", "format": "in vivo", "experimental": "In human subjects, however, the compounds of Formulas I and II are valuable and effective agents for producing analgesia when administered in the general range of about 10 to 500 mg. per 70 kg. of subject weight, the dosage depending of course on the particular compound, the mode of administration, and the like. The following clinical results which were obtained in human subjects are illustrative. For oral administration the free base was used, and for parenteral (usually intramuscular) administration an aqueous solution of the lactate salt was used; the dosages are expressed in each instance in terms of milligrams of base per 70 kilograms of body weight of the human subject."}, "[5]": {"system": "analgesic effect of morphine sulfate", "assay": "Antagonism of morphine analgesia, modified D'Amour-Smith test", "settings": "Rattus norvegicus, sc, read-out: dosage of antagonist which reduced the analgesic effect of morphine by approximately 50 per cent"}, "[6]": {"assay": "D'Amour-Smith test for analgesia in rats", "format": "in vivo", "experimental": "In tests as in animals as analgesics and as antagonists of strong analgesics, the racemic, dextro, and levo forms of trans 1,2,3,4,5,6-hexahydro-3-(3-methyl-2-butenyl)-6-ethyl-11-methyl-8-hydroxy-2,6-methano-3-benzazocine described in Example 7D above gave results substantially differing from those of the corresponding cis forms and of the related compounds of this invention. Thus, in the analgesic antagonist test versus a 60 mg/kg. dose of meperidine, the maximum degree of antagonism which could be obtained for these three trans forms was: for the racemic trans form, 50 percent antagonism at 0.1 mg/kg.; for the dextro trans form, 30 percent antagonism at 1.25 mg./kg.; and for the levo trans form, 22 percent antagonism at 0.1 mg./kg."}}, "data": [{"smiles": "CC(C)=CCN1CC[C@@]2(C)c3cc(O)ccc3C[C@@H]1[C@@H]2C", "note": "(relative stereo) [4A (base), racemic cis 1,2,3,4,5,6-hexahydro-3-(3-methyl-2-butenyl)-6,11-dimethyl-8-hydroxy-2,6-methano-3-benzazocine]", "values": [{"measurement": "support of morphine addiction", "setting": "[1]", "result": "did not support morphine addiction"}, {"measurement": "pH of the 1 percent solution", "setting": "[2]; 1 percent solution in dilute hydrochloric acid", "result": 2.80}, {"measurement": "pH at which a precipitate formed", "setting": "[2]; 1 percent solution, addition of N/10 sodium hydroxide", "result": 5.4}, {"measurement": "solubility", "setting": "[2]; dilute hydrochloric acid, mixture of 0.35 ml. of N/2 hydrochloric acid and 0.15 ml. of water, read-out: solubility in dilute hydrochloric acid", "result": 100, "unit": "mg/mL"}, {"measurement": "ED50", "setting": "[3]; Rattus norvegicus, sc, read-out: dosage of antagonist which reduced the analgesic effect of meperidine by approximately 50 per cent", "result": 3.9, "unit": "mg/kg"}, {"measurement": "analgesia in human subjects", "setting": "[4]; orally, 50mg./70 kg. and 100 mg./70 kg.", "result": "effective and satisfactory analgesia"}, {"measurement": "dose approximately equivalent to 10 mg. of morphine sulfate as an analgesic", "setting": "[4]; parenterally in humans", "result": "~20", "unit": "mg"}, {"measurement": "analgesia in human subjects", "setting": "[4]; parenterally, 10 mg./70 kg. and 60 mg./70 kg.", "result": "effective and satisfactory analgesia"}, {"measurement": "ED50", "setting": "[5]", "result": 9, "unit": "mg/kg"}]}, {"smiles": "CC[C@]12CCN(CC=C(C)C)[C@@H](Cc3ccc(O)cc31)C2C", "note": "(relative stereo) [7D (dextro trans), trans 1,2,3,4,5,6-hexahydro-3-(3-methyl-2-butenyl)-6-ethyl-11-methyl-8-hydroxy-2,6-methano-3-benzazocine]", "values": [{"measurement": "analgesic activity in D'Amour-Smith test", "setting": "[6]; at 30 mg./kg.", "result": "inactive"}, {"measurement": "toxicity in D'Amour-Smith test", "setting": "[6]; at 60 mg./kg.", "result": "toxic"}, {"measurement": "maximum degree of antagonism", "setting": "[3]; at 1.25 mg./kg.", "result": 30, "unit": "%"}]}, {"smiles": "CC[C@]12CCN(CC=C(C)C)[C@@H](Cc3ccc(O)cc31)C2C", "note": "(relative stereo) [7D (levo trans), trans 1,2,3,4,5,6-hexahydro-3-(3-methyl-2-butenyl)-6-ethyl-11-methyl-8-hydroxy-2,6-methano-3-benzazocine]", "values": [{"measurement": "ED50 in D'Amour-Smith test for analgesia", "setting": "[6]", "result": 0.94, "unit": "mg/kg"}, {"measurement": "maximum degree of antagonism", "setting": "[3]; at 0.1 mg/kg.", "result": 22, "unit": "%"}]}, {"smiles": "CC[C@]12CCN(CC=C(C)C)[C@H](Cc3ccc(O)cc31)[C@H]2C", "note": "(relative stereo) [7D (racemic trans), trans 1,2,3,4,5,6-hexahydro-3-(3-methyl-2-butenyl)-6-ethyl-11-methyl-8-hydroxy-2,6-methano-3-benzazocine]", "values": [{"measurement": "ED50", "setting": "[6]; Rattus norvegicus", "result": 1.4, "unit": "mg/kg"}, {"measurement": "maximum degree of antagonism", "setting": "[3]; at 0.1 mg/kg.", "result": 50, "unit": "%"}]}]}
